Read-outs that look alike come from different tables or passages of the source.
Target: T1, AHR (Mus musculus, UniProt P30561)
T1 sequence (P30561 1-848 P471L/N533S/M589L): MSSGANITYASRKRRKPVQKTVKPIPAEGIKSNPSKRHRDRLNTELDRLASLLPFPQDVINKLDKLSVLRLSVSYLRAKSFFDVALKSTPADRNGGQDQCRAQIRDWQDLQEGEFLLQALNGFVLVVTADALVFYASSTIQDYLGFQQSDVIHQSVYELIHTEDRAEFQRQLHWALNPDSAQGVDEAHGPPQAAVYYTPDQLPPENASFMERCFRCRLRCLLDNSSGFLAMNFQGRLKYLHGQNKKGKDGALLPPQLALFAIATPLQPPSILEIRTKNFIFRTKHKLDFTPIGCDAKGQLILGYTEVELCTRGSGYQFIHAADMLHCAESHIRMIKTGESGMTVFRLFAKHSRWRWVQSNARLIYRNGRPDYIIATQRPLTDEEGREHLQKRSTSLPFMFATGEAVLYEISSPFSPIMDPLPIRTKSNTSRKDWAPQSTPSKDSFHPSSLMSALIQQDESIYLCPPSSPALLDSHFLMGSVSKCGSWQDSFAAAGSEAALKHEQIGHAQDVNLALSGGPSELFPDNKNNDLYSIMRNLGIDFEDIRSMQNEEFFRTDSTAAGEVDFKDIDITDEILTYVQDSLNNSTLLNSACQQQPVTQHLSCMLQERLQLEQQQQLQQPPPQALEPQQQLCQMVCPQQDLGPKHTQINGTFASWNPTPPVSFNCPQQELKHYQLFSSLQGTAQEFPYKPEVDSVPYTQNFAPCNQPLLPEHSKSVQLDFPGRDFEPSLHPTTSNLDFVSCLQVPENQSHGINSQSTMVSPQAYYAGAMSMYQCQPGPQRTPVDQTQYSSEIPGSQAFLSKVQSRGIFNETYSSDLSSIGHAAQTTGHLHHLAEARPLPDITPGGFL
Experiment: In vitro assay 3: antagonism in mouse cell line (AHR transactivation, firefly luciferase reporter, kynurenic acid prestimulated)
Type: cell-based
Conditions: 200 μM kynurenic acid, 20 hours, read-out: AHR Antagonism Mouse IC50
Description: Examples were tested in selected biological assays one or more times. When tested more than once, data are reported as either average values or as median values, wherein • the average value, also referred to as the arithmetic mean value, represents the sum of the values obtained divided by the number of times tested, and • the median value represents the middle number of the group of values when ranked in ascending or descending order. If the number of values in the data set is odd, the median is the middle value. If the number of values in the data set is even, the median is the arithmetic mean of the two middle values.
In addition the cells were stably transfected with an AHR inducible firefly luciferase reporter gene construct that carried AHR-binding sites (DRE) in its promoter. Kynurenic acid is an endogenous AHR activating ligand and was used to prestimulate test cells prior to testing the antagonistic properties of compounds.
As positive inhibition control cells without addition of kynurenic acid were incubated. Normalization was done by positive and negative controls.
Firefly luciferase activity was determined by the SteadyGlo Luciferase Assay System (Promega, #E2550).

[1] = Hepa 1c1c7 cells, firefly luciferase reporter

Compound | IC50 (mouse Hepa 1c1c7 cells) | IC50 [1]
COc1ccc(-c2nc3c4ccccc4nc(NC4CNCCNC4=O)n3n2)cc1 (centres unmarked) [Example 34, 6-{[2-(4-methoxyphenyl)[1,2,4]triazolo[1,5-c]quinazolin-5-yl]amino}-1,4-diazepan-5-one] | 23.8 nM | 
O=C1NCCNC[C@@H]1Nc1nc2c(Cl)cccc2c2nc(-c3ccc(F)cc3)nn12 [Example 964, (6S)-6-{[7-chloro-2-(4-fluorophenyl)[1,2,4]triazolo[1,5-c]quinazolin-5-yl]amino}-1,4-diazepan-5-one] |  | 4.6 nM
O=C1NCCNC[C@H]1Nc1nc2c(F)cccc2c2nc(-c3ccc(F)cc3)nn12 [Example 427, (6R)-6-{[7-fluoro-2-(4-fluorophenyl)[1,2,4]triazolo[1,5-c]quinazolin-5-yl]amino}-1,4-diazepan-5-one] | 3.16 nM | 
CSc1ccc(-c2nc3c4ccccc4nc(N[C@@H]4CNCCNC4=O)n3n2)cc1 [Example 256, (6R)-6-({2-[4-(methylsulfanyl)phenyl][1,2,4]triazolo[1,5-c]quinazolin-5-yl}amino)-1,4-diazepan-5-one] | 6.94 nM | 
COc1ccc(-c2nc3c4cc(Br)cc(Br)c4nc(N[C@@H]4CCCCNC4=O)n3n2)cc1 [Example 593, (3R)-3-{[7,9-dibromo-2-(4-methoxyphenyl)[1,2,4]triazolo[1,5-c]quinazolin-5-yl]amino}azepan-2-one] | 82.1 nM | 
O=C1NCCCC[C@H]1Nc1nc2c(F)cccc2c2nc(-c3ccc(F)cc3)nn12 [Example 139, (3R)-3-{[7-fluoro-2-(4-fluorophenyl)[1,2,4]triazolo[1,5-c]quinazolin-5-yl]amino}azepan-2-one] | 0.258 nM | 
O=C1NCCCC[C@H]1Nc1nc2ccccc2c2nc(-c3ccc(F)nc3)nn12 [Example 639, (3R)-3-{[2-(6-fluoropyridin-3-yl)[1,2,4]triazolo[1,5-c]quinazolin-5-yl]amino}azepan-2-one] | 0.927 nM | 
COc1ccc(-c2nc3c4cc(C(F)(F)F)ccc4nc(N[C@@H]4CCCCNC4=O)n3n2)cc1 [Example 545, (3R)-3-{[2-(4-methoxyphenyl)-9-(trifluoromethyl)[1,2,4]triazolo[1 ,5-c]quinazolin-5-yl]amino}azepan-2-one] | > 20000 nM | 
O=C1NCCCC[C@@H]1Nc1nc2ccccc2c2nc(-c3ccc(Cl)cc3)nn12 [Example 7, (3S)-3-{[2-(4-chlorophenyl)[1,2,4]triazolo[1,5-c]quinazolin-5-yl]amino}azepan-2-one] | 2.44 nM | 
COc1cccc(-c2nc3c4cc(C)ccc4nc(NC4CCCNC4=O)n3n2)c1 (centres unmarked) [Example 157, 3-{[2-(3-methoxyphenyl)-9-methyl[1,2,4]triazolo[1,5-c]quinazolin-5-yl]amino}piperidin-2-one] | 45.4 nM | 
COc1ccc(-c2nc3c4cc(C(F)(F)F)ccc4nc(N[C@@H]4CNCCNC4=O)n3n2)cc1 [Example 418, (6R)-6-{[2-(4-methoxyphenyl)-9-(trifluoromethyl)[1,2,4]triazolo[1,5-c]quinazolin-5-yl]amino}-1,4-diazepan-5-one] | 8710 nM | 
CCCNC(=O)[C@@H](C)Nc1nc2ccccc2c2nc(-c3cc(Cl)ccc3OC(F)(F)F)nn12 [Example 502, N^2-{2-[5-chloro-2-(trifluoromethoxy)phenyl][1,2,4]triazolo[1,5-c]quinazolin-5-yl}-N-propyl-D-alaninamide] | 196 nM | 
Cn1cc(-c2nc3c4c(C5CC5)cccc4nc(NC4CNCCNC4=O)n3n2)cn1 (centres unmarked) [Example 294, 6-{[10-cyclopropyl-2-(1-methyl-1H-pyrazol-4-yl)[1,2,4]triazolo[1,5-c]quinazolin-5-yl]amino}-1,4-diazepan-5-one] | 5430 nM | 
O=C1NCCNC[C@H]1Nc1nc2ccccc2c2nc(-c3ccc(F)cc3)nn12 [Example 260, (6R)-6-{[2-(4-fluorophenyl)[1,2,4]triazolo[1,5-c]quinazolin-5-yl]amino}-1,4-diazepan-5-one] | 6.75 nM | 
O=C1NCCNC[C@H]1Nc1nc2ccccc2c2nc(-c3ccc(C(F)(F)F)cc3)nn12 [Example 259, (6R)-6-({2-[4-(trifluoromethyl)phenyl][1,2,4]triazolo[1,5-c]quinazolin-5-yl}amino)-1,4-diazepan-5-one] | 0.644 nM | 
O=C1NCCCC[C@H]1Nc1nc2cccc(Br)c2c2nc(-c3ccc(F)cc3)nn12 [Example 166, (3R)-3-{[10-bromo-2-(4-fluorophenyl)[1,2,4]triazolo[1,5-c]quinazolin-5-yl]amino}azepan-2-one] | 2.57 nM | 
Cc1ccc(-c2nc3c4ccccc4nc(N[C@@H]4CCCCNC4=O)n3n2)cc1 [Example 56, (3R)-3-{[2-(4-methylphenyl)[1,2,4]triazolo[1,5-c]quinazolin-5-yl]amino}azepan-2-one] | 0.18 nM | 
COc1ccc(-c2nc3c4cccc(N(C)C)c4nc(N[C@@H]4CCCCNC4=O)n3n2)cc1 [Example 829, (3R)-3-{[7-(dimethylamino)-2-(4-methoxyphenyl)[1,2,4]triazolo[1,5-c]quinazolin-5-yl]amino}azepan-2-one] |  | 46.8 nM
C[C@@H](Nc1nc2c(Br)cccc2c2nc(-c3cnn(C)c3)nn12)C(=O)NCCCN(C)C [Example 810, N^2-[7-bromo-2-(1-methyl-1H-pyrazol-4-yl)[1,2,4]triazolo[1,5-c]quinazolin-5-yl]-N-[3-(dimethylamino)propyl]-D-alaninamide] |  | 771 nM
O=C1NCCNC[C@@H]1Nc1nc2ccccc2c2nc(-c3ccc(F)cc3)nn12 [Example 965, (6S)-6-{[2-(4-fluorophenyl)[1,2,4]triazolo[1,5-c]quinazolin-5-yl]amino}-1,4-diazepan-5-one] |  | 12 nM
COc1ccc(-c2nc3c4c(Cl)cccc4nc(NC4CNCCNC4=O)n3n2)cc1 (single isomer, unassigned) [Example 297, 6-{[10-chloro-2-(4-methoxyphenyl)[1,2,4]triazolo[1,5-c]quinazolin-5-yl]amino}-1,4-diazepan-5-one] | 25.1 nM | 
O=C1NCCNC[C@@H]1Nc1nc2c(Br)cccc2c2nc(-c3ccc(F)cc3)nn12 [Example 973, (6S)-6-{[7-bromo-2-(4-fluorophenyl)[1,2,4]triazolo[1,5-c]quinazolin-5-yl]amino}-1,4-diazepan-5-one] |  | 8.28 nM
O=C1NCCC1Nc1nc2ccccc2c2nc(-c3ccc(F)cc3)nn12 (centres unmarked) [Example 73, 3-{[2-(4-fluorophenyl)[1,2,4]triazolo[1,5-c]quinazolin-5-yl]amino}pyrrolidin-2-one] | 3.87 nM | 
COc1ccc(-c2nc3c4c(Cl)cccc4nc(NC4CNCCNC4=O)n3n2)cc1 (centres unmarked) [Example 292, 6-{[10-chloro-2-(4-methoxyphenyl)[1,2,4]triazolo[1,5-c]quinazolin-5-yl]amino}-1,4-diazepan-5-one] | 40.3 nM | 
O=C1NCCNC[C@H]1Nc1nc2c(Br)cccc2c2nc(-c3ccc(Cl)cc3)nn12 [Example 977, (6R)-6-{[7-bromo-2-(4-chlorophenyl)[1,2,4]triazolo[1,5-c]quinazolin-5-yl]amino}-1,4-diazepan-5-one] |  | 0.41 nM
COc1ccc(-c2nc3c4cccc(C(F)(F)F)c4nc(N[C@H]4CCCCNC4=O)n3n2)cc1 [Example 582, (3S)-3-{[2-(4-methoxyphenyl)-7-(trifluoromethyl)[1,2,4]triazolo[1,5-c]quinazolin-5-yl]amino}azepan-2-one] | 44.1 nM | 
COc1ccc(-c2nc3c4ccccc4nc(N[C@@H](CCCCNC(=O)OC(C)(C)C)C(N)=O)n3n2)cc1 [Example 25, tert-butyl [(5S)-6-amino-5-{[2-(4-methoxyphenyl)[1,2,4]triazolo[1,5-c]quinazolin-5-yl]amino}-6-oxohexyl]carbamate] | 485 nM | 
CC[C@H](Nc1nc2ccccc2c2nc(-c3ccc(Cl)cc3OC(F)F)nn12)C(N)=O [Example 532, (2S)-2-({2-[4-chloro-2-(difluoromethoxy)phenyl][1,2,4]triazolo[1,5-c]quinazolin-5-yl}amino)butanamide] | 10.6 nM | 
O=C1NCCCC[C@@H]1Nc1nc2ccccc2c2nc(-c3ccccc3)nn12 [Example 1, (3S)-3-[(2-phenyl[1,2,4]triazolo[1,5-c]quinazolin-5-yl)amino]azepan-2-one] | 4.88 nM | 
